These results are taken from ChEMBL document CHEMBL3994655, “Methylsulfonyl benzothiazoles (MSBT) derivatives: Search for new potential antimicrobial and anticancer agents” (2017).

In brackets after ≈: the same amount, converted by molar mass.

One test deals with Staphylococcus aureus. The experiment in a line: Antibacterial activity against Staphylococcus aureus 209P assessed as zone of inhibition at 5 mg/ml by agar well diffusion method. In kind it is functional. To be noted: read-out: DIZ. Background: A growth-free zone around the sample is the usual read-out of agar diffusion tests.
For the molecule `CCOc1ccc2sc(S(C)(=O)=O)nc2c1N`, the zone of inhibition at 5000 µg/mL is not above 7 mm.

For another test, the system named is Escherichia coli. The experiment in a line: Antibacterial activity against Escherichia coli ATCC 35421 assessed as zone of inhibition at 5 mg/ml by agar well diffusion method. It counts as functional. To be noted: read-out: DIZ.
With `CCOc1ccc2sc(S(C)(=O)=O)nc2c1N`, the zone of inhibition at 5000 µg/mL was not above 7 mm.

The test system of another test is Candida albicans. Kind of test: Antifungal activity against Candida albicans A01 assessed as zone of inhibition at 5 mg/ml by agar well diffusion method. In kind it is functional. Conditions: read-out: DIZ.
As to `CCOc1ccc2sc(S(C)(=O)=O)nc2c1N`, the zone of inhibition at 5000 µg/mL came to 19 mm.

Another test deals with Staphylococcus aureus. Kind of test: Antibacterial activity against Staphylococcus aureus 209P assessed as zone of inhibition at 1 mg/ml by agar well diffusion method. In kind it is functional. Conditions: read-out: DIZ.
For the molecule `CCOc1ccc2sc(S(C)(=O)=O)nc2c1N`, the zone of inhibition at 1000 µg/mL turned out to be 17 mm.

In another test the test system is Escherichia coli. Kind of test: Antibacterial activity against Escherichia coli ATCC 35421 assessed as zone of inhibition at 1 mg/ml by agar well diffusion method. Conditions: read-out: DIZ. In kind it is functional.
Turning to `CCOc1ccc2sc(S(C)(=O)=O)nc2c1N`, the zone of inhibition at 1000 µg/mL was not above 7 mm.

In another test the test system is Candida albicans. The experiment in a line: Antifungal activity against Candida albicans A01 assessed as zone of inhibition at 1 mg/ml by agar well diffusion method. In kind it is functional. Conditions: read-out: DIZ.
Turning to `CCOc1ccc2sc(S(C)(=O)=O)nc2c1N`, the zone of inhibition at 1000 µg/mL was not above 7 mm.

The subject of a further test is Staphylococcus aureus. The experiment in a line: Antibacterial activity against Staphylococcus aureus 209P after 24 to 48 hrs by macro-broth dilution method. In kind it is functional.
Settings: not given
Molecule `CC(=O)NC[C@H]1CN(c2ccc(N3CCOCC3)c(F)c2)C(=O)O1` [LINEZOLID] displayed an MIC of 1 µg/mL (≈ 2.96 µM).

In a further test the test system is Staphylococcus epidermidis. The experiment in a line: Antibacterial activity against Staphylococcus epidermidis 209E after 24 to 48 hrs by macro-broth dilution method. It counts as functional.
Settings: not given
As for `CC(=O)NC[C@H]1CN(c2ccc(N3CCOCC3)c(F)c2)C(=O)O1` [LINEZOLID], the MIC stood at 1 µg/mL (≈ 2.96 µM).

The subject of a further test is Escherichia coli. Kind of test: Antibacterial activity against Escherichia coli ATCC 35421 after 24 to 48 hrs by macro-broth dilution method. In kind it is functional.
Settings: not given
In the case of GENTAMICIN, inhibition of growth (MIC) required 1 µg/mL.

For a further test, the system named is Escherichia coli. Kind of test: Antibacterial activity against Escherichia coli ATCC 20732 after 24 to 48 hrs by macro-broth dilution method. It counts as functional.
Settings: not given
Background: Broth dilution looks for growth in wells or tubes with falling amounts of substance.
As to GENTAMICIN, the lowest concentration to inhibit growth (MIC) was 1 µg/mL.

The subject of another test is Pseudomonas aeruginosa. Kind of test: Antibacterial activity against Pseudomonas aeruginosa M5 after 24 to 48 hrs by macro-broth dilution method. It counts as functional.
Settings: not given
In the case of GENTAMICIN, the MIC worked out at 2 µg/mL.

Another test deals with Candida albicans. Kind of test: Antifungal activity against Candida albicans A01 after 24 to 48 hrs by macro-broth dilution method. It counts as functional.
Settings: not given
Consider `CCOc1ccc2sc(S(C)(=O)=O)nc2c1N`, for which the MIC came out at 8 µg/mL (≈ 29.4 µM).

In turn, `OC(Cn1cncn1)(Cn1cncn1)c1ccc(F)cc1F` [FLUCONAZOLE] displayed an MIC of 4 µg/mL (≈ 13.1 µM).

The next test concerns Candida albicans. Kind of test: Antifungal activity against Candida albicans ATCC 10231 after 24 to 48 hrs by macro-broth dilution method. In kind it is functional.
Settings: not given
The molecule `CCOc1ccc2sc(S(C)(=O)=O)nc2c1N` came in with an MIC of 4 µg/mL (≈ 14.7 µM).

Take `OC(Cn1cncn1)(Cn1cncn1)c1ccc(F)cc1F` [FLUCONAZOLE]: inhibition of growth (MIC) required 4 µg/mL (≈ 13.1 µM).

A further test deals with Pichia kudriavzevii. Kind of test: Antifungal activity against Candida krusei G03 after 24 to 48 hrs by macro-broth dilution method. In kind it is functional.
Settings: not given
The molecule `CCOc1ccc2sc(S(C)(=O)=O)nc2c1N` gave a minimal inhibitory concentration (MIC) of 10 µg/mL (≈ 36.7 µM).

As for `OC(Cn1cncn1)(Cn1cncn1)c1ccc(F)cc1F` [FLUCONAZOLE], the MIC stood at 2 µg/mL (≈ 6.53 µM). This MIC is about 5-fold lower than that of the molecule before.

Another test relates to Pichia kudriavzevii. The experiment in a line: Antifungal activity against Candida krusei G06 after 24 to 48 hrs by macro-broth dilution method. In kind it is functional.
Settings: not given
Turning to `CCOc1ccc2sc(S(C)(=O)=O)nc2c1N`, it took 10 µg/mL (≈ 36.7 µM) to inhibit growth (MIC).

In turn, `OC(Cn1cncn1)(Cn1cncn1)c1ccc(F)cc1F` [FLUCONAZOLE] registered an MIC of 2 µg/mL (≈ 6.53 µM).

In the next test the test system is Nakaseomyces glabratus. The experiment in a line: Antifungal activity against Candida glabrata H04 after 24 to 48 hrs by macro-broth dilution method. It counts as functional.
Settings: not given
As for `CCOc1ccc2sc(S(C)(=O)=O)nc2c1N`, 10 µg/mL (≈ 36.7 µM) was the least that counted as inhibitory (MIC).

`OC(Cn1cncn1)(Cn1cncn1)c1ccc(F)cc1F` [FLUCONAZOLE]: the MIC is 2 µg/mL (≈ 6.53 µM).

The next test deals with Nakaseomyces glabratus. The experiment in a line: Antifungal activity against Candida glabrata H05 after 24 to 48 hrs by macro-broth dilution method. It counts as functional.
Settings: not given
For `CCOc1ccc2sc(S(C)(=O)=O)nc2c1N`, the MIC was found to be 10 µg/mL (≈ 36.7 µM).

`OC(Cn1cncn1)(Cn1cncn1)c1ccc(F)cc1F` [FLUCONAZOLE] had an MIC of 2 µg/mL (≈ 6.53 µM). Compared with the last molecule, the MIC is about 5-fold lower.

The next test has as its system HeLa. Kind of test: Cytotoxicity against human HeLa cells assessed as cell growth at 10^-7 M after 48 hrs by SRB assay relative to control. Conditions: read-out: Activity. In kind it is functional. On the technique in general: In SRB staining, fixed cells bind dye roughly in proportion to their protein.
In the case of `CCOc1ccc2sc(S(C)(=O)=O)nc2c1N`, the growth at 0.1 µM was determined as 99.5%.

The test system of another test is HeLa. The experiment in a line: Cytotoxicity against human HeLa cells assessed as cell growth at 10^-6 M after 48 hrs by SRB assay relative to control. It counts as functional. Conditions: read-out: Activity.
On to `CCOc1ccc2sc(S(C)(=O)=O)nc2c1N`, for which the growth at 1 µM turned out to be 93%.

In another test the test system is HeLa. Kind of test: Cytotoxicity against human HeLa cells assessed as cell growth at 10^-5 M after 48 hrs by SRB assay relative to control. To be noted: read-out: Activity. It counts as functional.
Regarding `CCOc1ccc2sc(S(C)(=O)=O)nc2c1N`, the growth at 10 µM came out at 65.6%.

A further test relates to HeLa. The experiment in a line: Cytotoxicity against human HeLa cells assessed as cell growth at 10^-4 M after 48 hrs by SRB assay relative to control. In kind it is functional. Conditions: read-out: Activity.
Turning to `CCOc1ccc2sc(S(C)(=O)=O)nc2c1N`, the growth at 100 µM was -31.9%.

The subject of the next test is HeLa. Kind of test: Growth inhibition of human HeLa cells after 48 hrs by SRB assay.
Settings: not given
It counts as functional.
For the molecule `CCOc1ccc2sc(S(C)(=O)=O)nc2c1N`, it took 34 µM to inhibit growth by half (GI50), the LC50 was more than 100 µM, total growth inhibition (TGI) required 74.3 µM and the “growth inhibition (GI)” value is “Dose-dependent effect”.

A further test has as its system HeLa. The experiment in a line: Cytotoxicity against human HeLa cells assessed as reduction in cell viability after 48 hrs by SRB assay. In kind it is functional, cell-based.
Settings: not given
In the case of `CCOc1ccc2sc(S(C)(=O)=O)nc2c1N`, the Activity result is “Dose-dependent effect”.

For orientation: MIC means the smallest concentration in the dilution series that meets the test's criterion for growth inhibition. Read a low MIC as a more susceptible organism. Usually GI50 stands for the concentration at which growth is held to half of that of the control. The low end stands for greater sensitivity of the cells, the high end for lower sensitivity of the cells. In general, LC50 refers to the concentration that kills 50% of the test population. A low value points to a more lethal substance. By TGI is commonly meant the concentration giving total growth inhibition. Read a low TGI as more potent growth arrest.
